These results are taken from PubChem BioAssay AID2423 (Broad Institute, 2010).

pEC50: −log10 of the molar value. Inconclusive results are not listed. Calls of active or inactive are those of the source. How the calls were made is not given here.

The subject of this assay is C. albicans CaCi-8 + fluconazole, Alamar Blue growth, 48 h. Description: resistant C. albicans growth inhibition with fluconazole, dose response, CaCi-8 strain, Alamar Blue fluorescence (AID 2423).
For the molecule `COc1cccc2c(SCC(=O)N/N=C/c3ccc(O)c(O)c3)cc(C)nc12`, the EC50 (commonly the concentration that produces a half-maximal response) is > 16 µM (inactive).
Regarding `Cc1cccc(Cc2cnc(N3C(=N)SC(C)C3=O)s2)c1` (configuration not stated), the EC50 was > 16 µM (inactive).
For `CC(=O)N1CCC(=NNC(=O)c2cc3ccccc3cc2O)CC1`, the pEC50 (commonly the EC50 on a negative log10 scale, so that one unit is a factor of ten) is 4.93.
Take `CCCOC(c1ccccc1)(c1ccc(C(F)(F)F)cc1)C(Oc1nc(C)cc(C)n1)C(=O)O` (configuration not stated): the pEC50 was 5.19.
As for `O=[N+]([O-])c1ccc(C2CCCC/C2=N/OCc2ccc(F)cc2)c([N+](=O)[O-])c1` (configuration not stated), the EC50 is > 16 µM (inactive).
In the case of `O=C(CCNC(=O)c1ccc(Br)cc1)Nc1nccs1`, the EC50 is > 15 µM (inactive).
Consider `Cc1ccc2[nH]c(C)c(/C=C/c3cc[n+](C)cc3)c2c1`, for which the pEC50 is 5.54.
Turning to `COc1cccc(F)c1C(C[N+](=O)[O-])c1c(N)n(C)c(=O)n(C)c1=O` (configuration not stated), the pEC50 was 5.78.
For the molecule `CCN(CC)S(=O)(=O)c1ccc(N/N=C/c2ccc(O)cc2O)nc1`, the pEC50 was 6.19.
As to `O=C1CCCN1CCCN=c1c([N+](=O)[O-])nn(-c2ccc(Cl)cc2)n1O`, the negative-log EC50 (pEC50) is 5.21.
Take `O=c1cnnc(N/N=C/c2ccccn2)[nH]1`: the pEC50 was 6.06.
Regarding `Cc1onc(-c2ccccc2)c1C(=O)NC(=S)NNC(=O)c1cccnc1`, the EC50 was > 16 µM (inactive).
On to `Oc1ccc2ccccc2c1/C=N/Nc1nnc(-c2ncc[nH]2)c2ccccc12`, for which the pEC50 was 6.42.
The same measure, in the same setting: as for `O=C(Nc1nnc(-c2ccc3c(c2)CCCC3)o1)c1ccc(Cl)cc1Cl`, the figure is more than 6.92; as for `COc1ccc(N(C(=O)Cn2nnc3ccccc32)C(C(=O)NC(C)(C)C)c2ccc(OC)c(O)c2)cc1` (configuration not stated), 5.66.
On to `CCCNC(=O)C12CCC(C)(c3nc4cc(C)c(C)cc4nc31)C2(C)C` (configuration not stated), for which the EC50 is > 15 µM (inactive).
With `O=C(Nc1cccc(F)c1)c1ccc2ncsc2c1`, the pEC50 was 5.63.
For the molecule `Cc1cc(Cl)ccc1OCc1cn2cccnc2n1`, the negative logarithm of the EC50 (pEC50) is 5.27.
Consider `CC(C)(C)c1ccc(OCc2ccc(C(=O)N/N=C/c3ccc(O)c(O)c3)cc2)cc1`, for which the pEC50 was 5.51.
Take `CC1CCc2c(sc3ncnc(N4CCOCC4)c23)C1` (configuration not stated): the EC50 was > 16 µM (inactive).
With `O=C(Nc1nc(-c2ccccn2)cs1)c1cc2ccccc2o1`, the pEC50 is 6.04.
In the case of `COc1ccc(-n2c(-c3ccc(Br)cc3)c[n+]3c2SC(C)C3)cc1` (configuration not stated), the negative logarithm of the EC50 (pEC50) is 5.17.
For `CCc1ccc(/C=C/C(=O)c2cc(Br)ccc(=O)c2O)cc1`, the pEC50 was 6.08.
As to `O=C1c2ccccc2C(=O)c2c1cccc2N1CCCC1`, the EC50 was > 16 µM (inactive).
In the case of `CCN(CC)c1ccc2cc(S(=O)(=O)c3ccc(C)cc3)c(=O)oc2c1`, the pEC50 was 6.18.
In the case of `O=C(Oc1ccc(Cl)c2cccnc12)c1cccc([N+](=O)[O-])c1`, the negative logarithm of the EC50 (pEC50) is 4.91.
Consider `Cc1ccc(NCc2ccc(O)c3ncccc23)cc1C`, for which the pEC50 was 4.87.
For `O=C(O)c1cnc(-c2ccccc2)nc1Sc1ccc(Cl)cc1`, the EC50 is > 15 µM (inactive).
As to `CCOc1cc(/C=C2\SC(=S)N(NS(=O)(=O)c3ccccc3)C2=O)ccc1O`, the pEC50 was 5.69.
Take `COc1cc2c(O)c3c(c(-c4ccc5c(c4)OCO5)c2cc1OC)C(=O)OC3`: the pEC50 is 5.66.
`CC(=O)Nc1ccc(N2CCCCC2)c(C(=O)Nc2cccc(C)c2)c1`: the EC50 was > 16 µM (inactive).
Turning to `COc1ccc(/C=C/C(=O)N(c2ccccn2)C2CCCCC2)cc1OC`, the pEC50 is 5.10.
Turning to `Cn1c(O)c(/C=N/NC(=O)c2cc3ccccc3cc2O)c2ccccc21`, the pEC50 was 5.27.
In the case of `O=C(N/N=C/c1sc2ccccc2c1O)c1cccc2ccccc12`, the pEC50 is 5.80.
In the case of `Cc1cccc(C)c1OCC(=O)NNC(=S)NC(=O)C1CC1`, the pEC50 is 6.02.
Same read-out and setting: to `O=C(Nc1cccc(Cl)c1)Nc1nccs1` belongs 6.84.
Take `Cc1[nH]nc(-c2ccc(O)c(C)c2O)c1-c1cnn(-c2ccccc2)c1`: the pEC50 is 5.40.
In the case of `CCOC(=O)c1sc(Nc2nc3c(OC)cccc3s2)nc1C`, the pEC50 was 5.71.
For `Cc1onc(C(=O)Nc2sc3c(c2C#N)CCCC3)c1[N+](=O)[O-]`, the pEC50 was 6.00.
On to `CC(C)c1ccc2c(c1)C(N1CCNCC1)Cc1ccc(F)cc1S2` (configuration not stated), for which the pEC50 was 5.14.
Same read-out and setting: to `CCOC(=O)c1c(-c2ccccc2)oc2ccc(OCC(O)CN(C)C)cc12` (configuration not stated) belongs 5.89.
Consider `COc1cccc(CN(C(=O)c2cc3ccccc3oc2=O)C2CC2)c1`, for which the EC50 was > 15 µM (inactive).
In the case of `COc1cccc(C2CC(c3ccc(NS(C)(=O)=O)cc3)=NN2C(=O)c2ccccc2)c1OC` (configuration not stated), the pEC50 is 5.43.
Same read-out and setting: as for `Cc1sc(NC(=O)c2ccc(Br)s2)c(C(N)=O)c1C`, the figure is 6.02; as for `O=C(c1ccccc1)c1ccc2nc(-c3ccc(NC(=O)c4ccccc4Br)cc3)[nH]c2c1`, 6.42; as for `CCOc1ccc2nc3cc(NCc4ccc(OC)cc4)ccc3c(N)c2c1`, 5.37.
Turning to `Cc1ccc(-c2nc3c(Cl)cc(Cl)cc3c(=O)n2O)cc1`, the negative-log EC50 (pEC50) was 5.96.
Consider `Cc1[nH]n(-c2cccc3ccccc23)c(=O)c1/C=N/NC(=O)c1cccc([N+](=O)[O-])c1`, for which the negative-log EC50 (pEC50) was 5.49.
Take `CCCCCCSc1nnc2[nH]c(=O)cc(N)n12`: the pEC50 is 5.94.
`CC(=O)c1sc(NC(=O)CCS(=O)(=O)c2ccccc2)nc1C`: the pEC50 was 6.43.
On to `C/C(=N\NC(=O)CCC(=O)Nc1ccc(C)c(C)c1)C1CC1`, for which the EC50 is > 15 µM (inactive).
With `CCCOc1ccc(C(=O)NNC(=S)NC(C)=O)cc1`, the pEC50 was 5.78.
As for `CN(Cc1ccccc1)S(=O)(=O)c1ccc(C(=O)Nc2nnc(C3CC3)o2)cc1`, the pEC50 was 6.54.
The same measure, in the same setting: to `C[C@@H]1CC[C@@]2(NC1)O[C@H]1C[C@H]3[C@@H]4CC=C5C[C@@H](O)CC[C@]5(C)[C@H]4CC[C@]3(C)[C@H]1[C@@H]2C` belongs 6.88.
With `Oc1ccc(CN2CCN(Cc3ccccc3)CC2)c2cccnc12`, the EC50 is > 16 µM (inactive).
As for `COc1ccc(C(=O)NNC(=S)NC(=O)c2ccc(Cl)cc2)cc1`, the negative logarithm of the EC50 (pEC50) was 6.03.
With `C[C@]12CCC3[C@@H](CC[C@H]4C[C@@H](O)CC[C@]34C)C1CCC2=O` (some centres not stated), the pEC50 was 5.83.
With `O=C(N/N=C\c1cc(Cl)ccc1O)c1ccc(S(=O)(=O)N2CCCCC2)cc1`, the pEC50 was 6.03.
In the case of `C=CCc1c(C)c(C#N)c2nc3ccccc3n2c1NCCN(C)C`, the pEC50 is 6.05.
For `COc1ccc2c(c1)c(/C=C/c1cc[n+](C)cc1)cn2C`, the negative logarithm of the EC50 (pEC50) was 5.23.
In the case of `NNC(=O)c1cc(-c2cccs2)nc2ccccc12`, the EC50 was > 15 µM (inactive).
In the case of `CN=c1scc(-c2cccs2)n1/N=C/c1ccc(O)c(O)c1O`, the pEC50 was 4.84.
In the case of `COc1cccc(/C=N/Nc2nccnc2Cl)c1O`, the pEC50 was 5.74.
As to `Cc1nc(NS(=O)(=O)c2ccc(Br)cc2)c2c3c(sc2n1)CCC3`, the EC50 was > 16 µM (inactive).
As to `CCOC(=O)N=Nc1c2ccccc2c2nc3no[nH]c3nc12`, the EC50 is > 15 µM (inactive).
For `CC(=O)NC(CC(=O)NNC(=O)c1cc2ccccc2cc1O)c1ccccc1` (configuration not stated), the pEC50 was 4.80.
With `Cc1ccc(-c2nnn(CC(=O)N(Cc3ccco3)C(C(=O)NC(C)(C)C)c3ccncc3)n2)o1` (configuration not stated), the EC50 is > 15 µM (inactive).
As for `CN(C/C=C/C#CC(C)(C)C)Cc1cccc2ccccc12`, the pEC50 was 5.59.
In the case of `C/C(=N\NC(=O)c1nn(C)c(C)c1Br)c1ccc(NC(=O)C2CCCC2)cc1`, the EC50 was > 15 µM (inactive).
On to `COc1cccc(/C=N/NC(=O)c2c(C)nc3ccc(Br)cn23)c1O`, for which the pEC50 is 6.19.
On to `Cc1ccc(/C=N/NC(=O)C2=NNC(c3ccccc3)(c3ccccc3)C2)c(O)c1`, for which the EC50 was > 16 µM (inactive).
Regarding `CCSc1ccc2cc(OC)ccc2[n+]1CC`, the pEC50 was 5.33.
For `O=C(CSc1ccc(Cl)cc1)Nc1nnc(-c2ccco2)o1`, the pEC50 is 5.56.
Consider `CN(C)c1cc[n+](CC(=O)c2ccc(-c3ccccc3)cc2)cc1`, for which the pEC50 was 5.30.
Turning to `CC1CCC(C(=O)c2c(O)c3ccccc3oc2=O)CC1` (configuration not stated), the negative-log EC50 (pEC50) is 5.54.
Consider `O=C(NNC(=S)Nc1cccc(C(F)(F)F)c1)c1ccc(Cl)cc1Cl`, for which the pEC50 is 5.71.
As to `C=CCNC(=S)Nc1sc2c(c1C(=O)OCC)CC(C)(CC)OC2` (configuration not stated), the pEC50 was 5.86.
`Cc1ccc(C2(c3noc(CN4CCC(c5ccncc5)CC4)n3)CCCC2)cc1`: the EC50 was > 15 µM (inactive).
Take `CS/C(=N\S(=O)(=O)c1cccs1)Nc1ccc(Cl)cc1`: the negative logarithm of the EC50 (pEC50) was 5.92.
With `Cc1ccc(SCC(=O)Nc2ccc3c(c2)C(=O)N(C)C3=O)cc1`, the EC50 is > 15 µM (inactive).
With `Cc1ccc(C(=O)CC(=O)COc2ccc(Cl)cc2)cc1`, the pEC50 was 5.53.
With `Cc1ccc(Nc2nc(Cl)nc(NC(C)(C)C)n2)cc1`, the pEC50 is 5.58.
`O=c1oc2ccccc2c(O)c1Cc1cc(Cl)c2cccnc2c1O`: the negative logarithm of the EC50 (pEC50) was 5.56.
The same measure, in the same setting: as for `CCCn1nnnc1NC(=O)c1ccc2ccccc2c1`, the figure is 5.78.
Still for that read-out and setting: as for `O=C1C(Nc2ccccc2)=C/C(=N/S(=O)(=O)c2cccs2)c2ccccc21`, the figure is 5.48; as for `O=[N+]([O-])c1ccc(S(=O)(=O)Nc2nc3ccccc3nc2Nc2ccccc2)cc1`, 5.84; as for `Cc1ccc(C(=O)c2oc3nc(C)cc(C)c3c2N)cc1`, 5.28.
As to `Nc1ncc(Br)cc1S(=O)(=O)Nc1cc(C(F)(F)F)cc(C(F)(F)F)c1`, the negative-log EC50 (pEC50) was 6.04.
`Cc1ccccc1Nc1ncccc1C(=O)N1CCOCC1`: the EC50 is > 16 µM (inactive).
Still for that read-out and setting: as for `COc1ccnc(Oc2cccc(C(F)(F)F)c2)c1C(=O)N/C=N/OCc1ccccc1F`, the figure is > 15 µM (inactive).
`Cc1ccc(NCc2ccc(O)c3ncccc23)cc1`: the pEC50 is 4.79.
Consider `O=C(N/N=C/c1cc([N+](=O)[O-])ccc1O)C1C2CCCCC21` (configuration not stated), for which the pEC50 was 5.67.
As for `CCC(C)c1ccc(O)c(NC(=S)NC(=O)c2cccnc2)c1` (configuration not stated), the pEC50 was 6.06.
As for `CCCc1ccc(/C=C2\C(=O)c3ccccc3C(O)=C2C(=O)OCC)cc1`, the EC50 was > 15 µM (inactive).
Consider `CCCOCc1ccc(O)c2ncccc12`, for which the pEC50 is 5.66.
On to `CCOC(=O)C(CC)/C(C)=N\NC(=O)c1ccccc1O` (configuration not stated), for which the negative logarithm of the EC50 (pEC50) was 5.11.
As to `Oc1ccc(Cl)cc1C1=NNC(c2cc(Br)cc3c2OCOC3)C1` (configuration not stated), the EC50 is > 16 µM (inactive).
